Results published in the supplement of paper PMC8960247.
Where a name gives a salt, the structure may show the parent alone. ± gives the standard error.

Columns and labels:
[1] = test system: 621-102 (TSC2-deficient); assay: relative viability vs DMSO; higher = less cytotoxic; conditions: serum: 10% FBS, 72 h
[2] = test system: 621-103 (TSC2-rescued); assay: as above; conditions: serum: 10% FBS, 72 h
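Also: immortalized renal angiomyolipoma cells stably carrying empty vector or TSC2, dosed in 384-well plates in DMEM, viability normalized to vehicle-treated wells within each plate.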

| Compound | relative viability ([1]; 0.0001 µM) | relative viability ([1]; 0.001 µM) | relative viability ([1]; 0.01 µM) | relative viability ([1]; 0.1 µM) | relative viability ([1]; 1 µM) | relative viability ([1]; 10 µM) | relative viability ([2]; 0.0001 µM) | relative viability ([2]; 0.001 µM) | relative viability ([2]; 0.01 µM) | relative viability ([2]; 0.1 µM) | relative viability ([2]; 1 µM) | relative viability ([2]; 10 µM) |
| --- | --- | --- | --- | --- | --- | --- | --- | --- | --- | --- | --- | --- |
| CN1C2CCCC1CC(NC(=O)c1nn(C)c3ccccc13)C2 (stereo not drawn) [Granisetron HCl] | 101 ± 3.8% | 99.5 ± 1% | 94.6 ± 1.2% | 99.56 ± 0.18% | 102.3 ± 0.95% | 95.1 ± 1.5% | 105.6 ± 0.89% | 102 ± 1.7% | 106.4 ± 0.23% | 106 ± 5.2% | 103 ± 4.2% | 102 ± 3% |
| CC(C)(C)OC(=O)N[C@H]1CCCCC/C=C\[C@@H]2C[C@@]2(C(=O)NS(=O)(=O)C2CC2)NC(=O)[C@@H]2C[C@@H](OC(=O)N3Cc4cccc(F)c4C3)CN2C1=O [Danoprevir] | 105 ± 3.4% | 111 ± 3.4% | 113 ± 1.2% | 114 ± 3.5% | 97.9 ± 4.1% | 105.7 ± 0.94% | 100.3 ± 0.43% | 104.2 ± 0.88% | 101 ± 3.4% | 101.8 ± 0.53% | 98.14 ± 0.84% | 99.4 ± 1.5% |
| COc1cccc(-c2cc(=O)c3ccccc3o2)c1N | 109 ± 2.8% | 103 ± 3% | 104.2 ± 0.83% | 104 ± 6% | 107.8 ± 0.69% | 109 ± 2.6% | 100 ± 2.6% | 99.7 ± 1.8% | 103 ± 1.9% | 99.8 ± 1.2% | 98.6 ± 2.6% | 97.6 ± 3.2% |
| CC1(C)CNc2cc(NC(=O)c3cccnc3NCc3ccncc3)ccc21 [Motesanib DiPhosphate] | 104 ± 1.8% | 119 ± 1.9% | 115.2 ± 1.1% | 110 ± 3% | 104 ± 2.7% | 107 ± 2% | 94.7 ± 3.1% | 102.6 ± 0.75% | 102.5 ± 0.75% | 102 ± 1.3% | 93 ± 1.9% | 98 ± 1.7% |
| CNCc1ccc(-c2[nH]c3cc(F)cc4c3c2CCNC4=O)cc1 | 130 ± 2.7% | 109 ± 3.2% | 128 ± 4.3% | 126 ± 4% | 120 ± 1.7% | 98.5 ± 1.6% | 104 ± 1.2% | 104 ± 1.1% | 104.8 ± 0.35% | 107.6 ± 0.23% | 111 ± 1.2% | 88 ± 1.9% |
| O=c1ncn2nc(Sc3ccc(F)cc3F)ccc2c1-c1c(Cl)cccc1Cl [VX-745] | 106 ± 5.1% | 112 ± 5.5% | 107 ± 1.1% | 104 ± 2.1% | 106 ± 4% | 93.3 ± 3.9% | 99.1 ± 1% | 101 ± 1.2% | 99.4 ± 1.5% | 100 ± 1.5% | 99.42 ± 0.31% | 98.127 ± 0.049% |
| COc1cc2c(Oc3ccc4[nH]c(C)cc4c3F)ncnc2cc1OCCCN1CCCC1 [Cediranib (AZD2171)] | 104 ± 3.6% | 117 ± 2.7% | 121 ± 5.1% | 102 ± 2.1% | 84.2 ± 1.6% | 10.6 ± 4.9% | 81.9 ± 2.5% | 89.4 ± 1.5% | 102 ± 1.9% | 97.36 ± 0.37% | 62.3 ± 2.6% | 1.75 ± 0.065% |
| CN1CC(=O)N2[C@H](c3ccc4c(c3)OCO4)c3[nH]c4ccccc4c3C[C@@H]2C1=O [Tadalafil (Cialis)] | 107.45 ± 0.0089% | 97.8 ± 3.3% | 107 ± 4.8% | 101 ± 2% | 94.3 ± 2.4% | 107.7 ± 0.44% | 91.2 ± 1.9% | 92.87 ± 0.31% | 102.7 ± 0.92% | 92.11 ± 0.35% | 96.51 ± 0.38% | 101 ± 2% |
| CC(C)c1cnn2c(NCc3ccccc3)cc(NCCCCCCN)nc12 [BS-181] | 112 ± 2.3% | 107 ± 3.7% | 106.4 ± 0.99% | 94.74 ± 0.88% | 116 ± 2.2% | 81.2 ± 7.1% | 101 ± 2.2% | 101.1 ± 1% | 99.7 ± 1.7% | 88.3 ± 1.2% | 100 ± 1.4% | 55.7 ± 5.2% |
| CCNC(=O)c1noc(-c2cc(C(C)C)c(O)cc2O)c1-c1ccc(CN2CCOCC2)cc1 [NVP-AUY922] | 35.4 ± 3.1% | 33 ± 1.4% | 22.2 ± 0.39% | 20.32 ± 0.026% | 23 ± 0.25% | 21.6 ± 1.3% | 17.5 ± 0.57% | 6.795 ± 0.067% | 6.22 ± 0.57% | 5.21 ± 0.31% | 4.92 ± 0.055% | 6.99 ± 0.21% |
| OCCN(CCO)c1nc(N2CCCCC2)c2nc(N(CCO)CCO)nc(N3CCCCC3)c2n1 [Dipyridamole] | 102 ± 3% | 98.3 ± 2.2% | 101.5 ± 1% | 95.2 ± 2.5% | 96.7 ± 2.7% | 93.4 ± 8.5% | 101 ± 2.4% | 103.1 ± 0.96% | 103 ± 2.1% | 104 ± 5.4% | 101 ± 6.3% | 101 ± 1.5% |
| C[N+]1(C)[C@@H]2C[C@@H](OC(=O)C(O)(c3cccs3)c3cccs3)C[C@H]1[C@@H]1O[C@@H]12 [Tiotropium Bromide hydrate] | 119 ± 6% | 110 ± 3.6% | 116.3 ± 0.16% | 112.5 ± 0.9% | 116 ± 1.3% | 117.1 ± 0.39% | 77.6 ± 0.97% | 97.55 ± 0.64% | 105.9 ± 0.43% | 100 ± 2.9% | 103 ± 3.4% | 103 ± 2.6% |
| CN(CCOc1ccc(CC2SC(=O)NC2=O)cc1)c1ccccn1 (stereo not drawn) [Rosiglitazone (Avandia)] | 112.8 ± 0.24% | 102 ± 8.2% | 99.4 ± 1% | 101 ± 3% | 102 ± 1.4% | 89.188 ± 0.073% | 97.1 ± 3.3% | 105 ± 2.9% | 102 ± 2.3% | 101 ± 3.8% | 105.9 ± 0.89% | 105 ± 1.4% |
| CC(C)[C@H](O)C(=O)N[C@@H](C)C(=O)N[C@@H]1C(=O)N(C)CCc2ccccc21 [Semagacestat] | 117 ± 2.5% | 118 ± 4.2% | 121.4 ± 0.8% | 117 ± 2% | 118 ± 1.6% | 116 ± 2.2% | 102 ± 2.3% | 98.71 ± 0.85% | 101 ± 1.2% | 102.5 ± 0.4% | 102 ± 1.2% | 103 ± 1.7% |
| Cc1ccc(CN2CCNCC2)cc1NC(=O)CNc1ccc(F)c(F)c1 | 112 ± 2.2% | 98.3 ± 5.5% | 100.6 ± 0.38% | 104 ± 3.2% | 88 ± 1.4% | 92.96 ± 0.19% | 113 ± 3.6% | 98.9 ± 2% | 108 ± 3.7% | 102 ± 2.5% | 95.4 ± 2.7% | 90.85 ± 0.73% |
| CCOC(=O)C1=C(COCCN)NC(C)=C(C(=O)OC)C1c1ccccc1Cl (stereo not drawn) [Amlodipine besylate] | 65.2 ± 8.7% | 72.3 ± 1.8% | 76.1 ± 6.9% | 71.3 ± 8.8% | 65.1 ± 9.1% | 53.6 ± 2.7% | 96.2 ± 2.2% | 91.1 ± 4.7% | 99.4 ± 2.6% | 102 ± 9% | 94.5 ± 5.2% | 57.2 ± 5% |
| Cc1[nH]c(/C=C2\C(=O)Nc3ccc(S(=O)(=O)N(C)c4cccc(Cl)c4)cc32)c(C)c1C(=O)N1CCN(C)CC1 | 98.4 ± 1.2% | 101 ± 2.5% | 101 ± 1.8% | 91.6 ± 1.4% | 100 ± 2.6% | 87.2 ± 1.5% | 97.3 ± 1.6% | 97.86 ± 0.64% | 98.4 ± 2% | 99.52 ± 0.97% | 101.8 ± 0.38% | 91.5 ± 3.8% |
| CCCS(=O)(=O)Nc1ccc(F)c(C(=O)c2c[nH]c3ncc(Cl)cc23)c1F [PLX-4720] | 108 ± 2.7% | 111 ± 4.3% | 107 ± 4.4% | 99.7 ± 4.8% | 101 ± 3.2% | 101 ± 1.9% | 102 ± 2.3% | 100.7 ± 0.75% | 99.2 ± 1.6% | 99.5 ± 1.8% | 99.18 ± 0.44% | 103.4 ± 0.45% |
| CO[C@@H]1[C@@H](OC(N)=O)[C@@H](O)[C@H](Oc2ccc3c(O)c(NC(=O)c4ccc(O)c(CC=C(C)C)c4)c(=O)oc3c2C)OC1(C)C [Novobiocin sodium (Albamycin)] | 97.5 ± 4.2% | 94.9 ± 2.2% | 99 ± 4% | 112 ± 1.2% | 107 ± 6.3% | 105 ± 4.1% | 104 ± 1.3% | 104.4 ± 0.12% | 102 ± 3.3% | 98.6 ± 2.8% | 105 ± 4.4% | 98.5 ± 3.8% |
